# Data: patent US20180073018A1, “COMPOSITIONS AND METHODS FOR SPECIFIC REACTIVATION OF HIV LATENT RESERVOIR” (priority 2015, published 2018)
# Key:
# Format in all cases: cell-based
# HIV-1 LTR promoter [1] = assay: dCas9-VPH/msgRNA (or SAHA) reactivation of latent LTR-eLuc reporter in TZM-bI cells; conditions: TZM-bI, transient transfection or lentivirus infection, 2 days
# Method: Cells were plated in 96-well plate and the indicated MS2-gRNAs were cotransfected by Lipofectamine 3000 (FIG. 3A) or coinfected by lentiviruses (FIG. 3B, MOI=50) with pMSCV-LTR-dCas9-VP64-BFP plus pLV-MS2-p65-HSF1-GFP. Two days later, OneGlo luminescence assay was performed. The SIV MS2-gRNA-D was used as negative control. […] The gRNA-J has no effect due to 2 nucleotides mismatch to the LTR sequence from TZM-bI cells.
# FIG. 8A, FIG. 8B, FIG. 8C, and FIG. 8D, depict the results of experiments of screening of MS2-mediated sgRNAs (msgRNAs) targeting the HIV-1 long terminal repeat (LTR) in the dCas9-synergistic activation mediator (SAM) system. FIG. 8A is a schematic illustration of SAM-VPH complex derived from dCas9-VP64 (V) and MS2-p65-HSF1 (PH) with msgRNAs. FIG. 8B is a graph showing similar activation of transfected EcoHIV-eLuc reporter by inducible (TRE) or constitutive (LTR) dCas9-VP64 expression in HEK293T cells. FIG. 8C is a graph showing similar reactivation of latent HIV-LTR-eLuc reporter in TZM-bI cells after either transient plasmid transfection by Lipofectamine 3000 or stable infection by lentivirus. […] The gRNA-J has no effect due to 2 nucleotides mismatch to the LTR sequence from TZM-bI cells. […]
# FIG. 9A and FIG. 9B: TZM-bI cells were infected with dCas9-VPH and indicated msgRNA lentiviruses at 1 or 10 MOI and luciferase activity was measured at 2-21 days post-infection (dpi). […]
# FIG. 12A, FIG. 12B, FIG. 12C: The dCas9-VPH stable TZM-bI cells were treated with SAHA or infected with indicated msgRNAs lentivirus for 2-4 d before luminescence reporter assay (FIG. 12A) and CELLTITER-GLO® luminescent cell viability assay (FIG. 12B). […]
# Experiments were conducted to compare reactivation of HIV-LTR luciferase reporter in TZM-BI cells induced by gRNA/dCas9-VP64/MS2-p65-HSF1/delivered by either transient plasmid transfection (FIG. 3A) or stable lentivirus infection (FIG. 3B). […] Two days later, OneGlo luminescence assay was performed. […]
# HIV-1 LTR promoter [2] = assay: dCas9-VP64/sgRNA reactivation of latent LTR-luciferase reporter in TZM-bI cells; conditions: sgRNA/dCas9-VP64 cotransfection, 3 days, relative to empty sgRNA control
# Text: FIG. 1A, FIG. 1B, and FIG. 1C, depict results of experiments comprising HIV-1 LTR-gRNA screening for dCas9-VP64-induced reactivation of latent LTR-luciferase reporter in TZM-bI cells. FIG. 1A is a schematic illustration depicting HIV-gRNA target sites. FIG. 1B is a schematic depicting gRNA/dCas9-VP64 binding to a target region of HIV-LTR that drives luciferase expression in TZM-bI cells. FIG. 1C depicts the results of experiments investigating the reactivation of HIV-LTR (as measured by luciferase reporter) induced by the various gRNAs. […] After 3 days, the luminescence of the cell lysate was measured with OneGlo luminescence kit. […]
# Cultured cells were transfected using lipofectamine3000 transfection or lentivirus infection. The firefly-luciferase reporter assay was used using Envision multiplate reader. Treated and controls were imaged using fluorescent microscopy and/or were analyzed using flow cytometry. […]
# (§1) Cells were cultured in a 96-well plate and transfected or transduced with indicated vectors. To examine the eLuc reporter activity, the cell lysate was prepared using the ONE-Glo luciferase assay system (Promega) and luminescence was measured in a 2104 ENVISION® Multilabel Reader (PerkinElmer). […]
# HIV-1 LTR promoter [3] = assay: dCas9-VP64/MS2-p65-HSF1 (SAM, dCas9-VPH) with MS2-sgRNA: EcoHIV-eLuc reporter assay in HEK293T cells; conditions: MS2-sgRNA/dCas9-VP64/MS2-p65-HSF1, pEcoHIV-NL4-3-eLuc, MS2-p65-HSF1 only = 1.00
# Text: FIG. 2A, FIG. 2B, and FIG. 2C, depict results of experiments comprising HIV-1 LTR-MS2-gRNA screening for LTR reactivation by SAM complex dCas9-VP64/MS2-p65-HSF1 in HEK293T cells. FIG. 2A and FIG. 2B depict a schematic of complex formation at the target site, where the complex comprises MS2-binding gRNA, dCas9-VP64, and MS2-p65-HSF1. FIG. 2C is a graph depicting the results of experiments investigating the reactivation of HIV-LTR induced by the various MS2-binding gRNA using pEcoHIV-NL4-3-eLuc reporter assay. […]
# as §1
# Thus, the newly-developed MS2-mediated SAM system was applied (FIG. 8A), which combined dCas9-VP64 with MS2-p65-HSF1 clustered trans-activators, designated dCas9-VPH (Konermann et al., 2015, Nature 517:583-8). […] To determine if dCas9-VPH/msgRNAs induced a better reactivation of HIV-1 latency, HIV-latent TZM-bI cells was cotransfected or cotransduced with dCas9-VPH and indicated msgRNAs (FIG. 8C) and the latency-reversing capability was measured. […]
Substance,reactivation of HIV-LTR-luciferase reporter (in words) (HIV-1 LTR promoter [1]),sgRNA TZM-bI Fold (LTR-luciferase reporter) (HIV-1 LTR promoter [2]),MS2-sgRNA HEK293T Fold (EcoHIV-eLuc reporter) (HIV-1 LTR promoter [3])
MS2-p65-HSF1: MS2 bacteriophage coat protein fused to p65 and HSF1 transactivation domains (SEQ ID NO: 108),did not influence the basal activity,,
LTR-P,,1.15 Fold,1.32 Fold
